# Laboratory results published in BindingDB's records for doi:10.7270/Q2NG4P4X (Burnham Center For Chemical Genomics, 2011).
# Molecular target: Beta-galactosidase (Escherichia coli, UniProt Q8VNN2)
# Test: detection-enzyme interference by beta-gal modulators – biochemical, E. coli enzyme, set 3, artefact control for CCR6 antagonist project, dose response (AID 504712)
# Beta-galactosidase, sequence (Q8VNN2 whole entry): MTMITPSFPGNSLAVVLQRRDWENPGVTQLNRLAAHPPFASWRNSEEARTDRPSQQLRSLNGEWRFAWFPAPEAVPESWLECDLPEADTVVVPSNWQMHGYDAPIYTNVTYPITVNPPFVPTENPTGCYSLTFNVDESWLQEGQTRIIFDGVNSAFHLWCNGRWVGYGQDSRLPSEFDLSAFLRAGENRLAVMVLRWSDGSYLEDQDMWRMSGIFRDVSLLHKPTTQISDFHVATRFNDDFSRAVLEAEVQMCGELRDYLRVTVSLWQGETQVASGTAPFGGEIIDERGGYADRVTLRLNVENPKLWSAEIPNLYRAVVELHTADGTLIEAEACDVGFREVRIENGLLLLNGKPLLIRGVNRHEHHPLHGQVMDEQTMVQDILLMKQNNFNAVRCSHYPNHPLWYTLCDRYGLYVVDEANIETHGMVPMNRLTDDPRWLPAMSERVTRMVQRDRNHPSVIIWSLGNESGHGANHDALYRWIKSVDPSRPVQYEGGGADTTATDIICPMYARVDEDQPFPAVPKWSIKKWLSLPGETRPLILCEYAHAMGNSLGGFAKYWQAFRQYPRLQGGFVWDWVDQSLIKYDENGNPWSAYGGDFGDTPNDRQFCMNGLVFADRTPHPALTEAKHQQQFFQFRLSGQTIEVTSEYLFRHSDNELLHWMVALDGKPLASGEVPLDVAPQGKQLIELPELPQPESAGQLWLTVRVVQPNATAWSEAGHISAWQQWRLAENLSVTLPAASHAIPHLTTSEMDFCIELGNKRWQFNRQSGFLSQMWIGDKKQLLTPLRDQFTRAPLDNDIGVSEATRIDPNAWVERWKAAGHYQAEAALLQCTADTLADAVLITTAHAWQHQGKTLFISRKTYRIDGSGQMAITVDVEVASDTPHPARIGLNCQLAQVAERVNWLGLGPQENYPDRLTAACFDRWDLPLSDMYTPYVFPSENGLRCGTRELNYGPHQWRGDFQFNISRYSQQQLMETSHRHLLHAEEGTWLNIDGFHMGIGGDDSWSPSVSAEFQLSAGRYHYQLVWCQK
row,SMILES,IC50 [µM]
1,CC1=NN(c2ccccc2)C(=O)/C1=C/NN1C(=O)c2ccc3c4c(ccc(c24)C1=O)CC3 [SMR000171439],> 66.6
2,O=Nc1c(C2C(=O)Nc3cc(Br)ccc32)[nH]c2ccccc12 (stereo not drawn) [6-bromoindirubin-3-oxime],40.8
3,"Cc1c(NN=C2C(=O)CC(C)(C)CC2=O)c(=O)n(-c2ccccc2)n1C [2-[(1,5-dimethyl-3-oxidanylidene-2-phenyl-pyrazol-4-yl)hydrazinylidene]-5,5-dimethyl-cyclohexane-1,3-dione]",> 66.6
4,CCCC1CCC(=NNC(=S)NCCc2ccccc2)CC1 (stereo not drawn) [SMR000347544],> 66.6
5,Cc1cc2nc(-n3c(O)c[nH]c3=S)sc2cc1C [SMR000272190],> 66.6
6,Oc1c(Cl)c(N=CCc2ccccc2)c(O)c2ccccc12 [MLS002608293],> 66.6
7,"COc1ccc(-n2c(O)cc(Sc3nnc(-c4ccccc4)o3)c2O)cc1 [1-(4-methoxyphenyl)-3-[(5-phenyl-1,3,4-oxadiazol-2-yl)thio]pyrrolidine-2,5-dione]",> 66.6
8,C=CCOc1ccc(CN=Nc2ccc(S(=O)(=O)Nc3ccccc3C(=O)O)cc2[N+](=O)[O-])cc1OC [2-[[4-[2-[(3-methoxy-4-prop-2-enoxy-phenyl)methylidene]hydrazinyl]-3-nitro-phenyl]sulfonylamino]benzoic acid],> 66.6
9,"COC1=CC=CC(CN=Nc2nc(Nc3ccc([N+](=O)[O-])cc3)nc(N3CCCC3)n2)C1=O (stereo not drawn) [2-hydroxy-3-methoxybenzaldehyde {4-[(4-nitrophenyl)amino]-6-pyrrolidin-1-yl-1,3,5-triazin-2-yl}hydrazone]",> 66.6
10,CN1C(=O)/C(=C2/C(=O)Nc3ccccc32)NC1=S [SMR000198608],> 66.6
11,CCOc1ccc(CN=Nc2ccc(S(=O)(=O)Nc3ccccc3C(=O)O)cc2[N+](=O)[O-])cc1,> 66.6
12,"C=CCSC(N)=NN=CC1C=C(Br)C=C([N+](=O)[O-])C1=O (stereo not drawn) [N''-[[(E)-(3-bromo-5-nitro-6-oxo-1-cyclohexa-2,4-dienylidene)methyl]amino]carbamimidothioic acid prop-2-enyl ester]",> 66.6
13,Cc1cc(N=NCc2ccc(F)cc2)nc(-n2nc(C)cc2C)n1 [SMR000426945],> 66.6
14,O=C1C([N+](=O)[O-])=CC(Cl)=CC1CN=Nc1ccccn1 (stereo not drawn) [MLS000539830],> 66.6
15,CC(C)(C)C1CCC(=NNC(=S)NCc2ccccc2)CC1 (stereo not drawn) [SMR000377499],> 66.6
16,N#CC(=C1C=CC(N=O)C(Cl)=C1)c1ccc(Cl)cc1 (stereo not drawn) [SMR001570423],> 66.6
17,O=C(O)c1ccc(N=NC=CCc2ccc([N+](=O)[O-])o2)cc1 [SMR000590759],33
18,O=C1Nc2ccc([N+](=O)[O-])cc2/C1=N/NC(=O)c1cc(-c2ccccc2Cl)nc2ccccc12 [2-(2-chlorophenyl)-N'-(2-keto-5-nitro-indol-3-yl)cinchoninohydrazide],> 66.6
19,O=C1C=CC([N+](=O)[O-])=CC1CN=Nc1ccccn1 (stereo not drawn) [MLS000585015],> 66.6
20,"COc1cccc(CN=Nc2nc(Nc3ccccc3)nc(-n3nc(C)cc3C)n2)c1O [(6E)-6-[[2-[4-(3,5-dimethylpyrazol-1-yl)-6-phenylazanyl-1,3,5-triazin-2-yl]hydrazinyl]methylidene]-2-methoxy-cyclohexa-2,4-dien-1-one]",> 66.6
21,CCOC1=CC(=Cc2c(-c3ccccc3)[nH]n(-c3nc(-c4ccc(Br)cc4)cs3)c2=O)C=CC1=O,> 66.6
22,O=C1C(O)=CC=CC1CN=Nc1ccc([N+](=O)[O-])cc1 (stereo not drawn) [MLS001207776],> 66.6

row,SMILES,IC50 [µM]
1,O=C1C(/C=N/c2ccc(N3CCOCC3)cc2)=CC(Cc2ccccc2)C=C1[N+](=O)[O-] (stereo not drawn) [SMR000231104],> 66.6
2,CC(NO)C(=O)C(=CN1CCCCC1)CN1CCCCC1 (stereo not drawn),> 66.6
3,CCOc1ccc(CN=Nc2ccc(S(=O)(=O)Nc3ccccc3C(=O)O)cc2[N+](=O)[O-])cc1OC [SMR001308940],> 66.6
4,"CN(C)c1nc(N=NCc2ccccc2O)nc(Nc2ccc(F)cc2)n1 [(6E)-6-[[2-[4-(dimethylamino)-6-(4-fluoroanilino)-1,3,5-triazin-2-yl]hydrazinyl]methylidene]cyclohexa-2,4-dien-1-one]",> 66.6
5,C/C=C(\C)C(=O)OC1[C@H](OC(C)=O)C2(CO)C(CC1(C)C)C1=CCC3C4(C)CCC(O[C@@H]5O[C@H](C(=O)O)[C@@H](O[C@@H]6O[C@H](CO)[C@@H](O)[C@H](O)[C@H]6O)[C@H](O)[C@H]5O[C@H]5O[C@H](CO)[C@@H](O)[C@H](O)[C@H]5O)[C@](C)(CO)C4CCC3(C)[C@]1(C)C[C@H]2O (stereo partly drawn) [MLS002695979],> 66.6
6,COc1ccc(-n2c(O)c(CN=Nc3nc(C)cc(C)n3)c3ccccc3c2=O)cc1OC [SMR000385482],> 66.6
7,O=C1C=CC=CC1CN=Nc1ccc([N+](=O)[O-])cn1 (stereo not drawn) [MLS002608402],46
8,Oc1cc(Sc2nnnn2-c2ccccc2)c(O)n1-c1cccc(Cl)c1,> 66.6
9,Cc1ccc2nc(-n3c(O)c[nH]c3=S)sc2c1,> 66.6
10,CN1C(=O)C(C2CC(c3ccc(Cl)cc3)N=N2)C(=O)N(C)C1=O (stereo not drawn) [SMR000439471],> 66.6
11,Cc1cc(C)nc(NNC=C2C(=O)CC(c3ccc(F)cc3)CC2=O)n1 (stereo not drawn),> 66.6
12,"Oc1cc(Sc2nnnn2C2CCCCC2)c(O)n1-c1ccccc1 [3-[(1-cyclohexyl-1,2,3,4-tetrazol-5-yl)sulfanyl]-1-phenyl-pyrrolidine-2,5-dione]",> 66.6
13,CCOc1ccc(-n2c(O)cc(Sc3nnnn3-c3ccccc3)c2O)cc1 [SMR000271658],> 66.6
14,C=c1c(O)c(O)cc2c1=CC=C1[C@@]2(C)CC[C@@]2(C)[C@@H]3C[C@](C)(C(=O)O)CC[C@]3(C)CC[C@]12C,> 66.6
15,"CC(N=Nc1ccc2ccccc2n1)c1ccccc1O (stereo not drawn) [(6Z)-6-[1-[N'-(2-quinolyl)hydrazino]ethylidene]cyclohexa-2,4-dien-1-one]",> 66.6
16,O=C(NN=CC1C=C([N+](=O)[O-])C=CC1=O)Nc1ccccc1 (stereo not drawn) [MLS000713965],> 66.6
17,"Oc1ccccc1-c1nnc(Sc2cc(O)n(-c3ccccc3)c2O)o1 [3-[[(2Z)-2-(6-oxo-1-cyclohexa-2,4-dienylidene)-3H-1,3,4-oxadiazol-5-yl]thio]-1-phenylpyrrolidine-2,5-dione]",> 66.6
18,"O=C1C([N+](=O)[O-])=CC=CC1CN=Nc1ccc2ccccc2n1 (stereo not drawn) [(6E)-2-nitro-6-[(2-quinolin-2-ylhydrazinyl)methylidene]cyclohexa-2,4-dien-1-one]",> 66.6
19,"Cc1cc(C)cc(-n2c(O)cc(Sc3nnnn3-c3ccccc3)c2O)c1 [1-(3,5-dimethylphenyl)-3-(1-phenyltetrazol-5-yl)sulfanylpyrrolidine-2,5-dione]",> 66.6
20,"Cc1ccccc1-n1c(O)cc(Sc2nnc(-c3ccccc3)o2)c1O [1-(2-methylphenyl)-3-[(5-phenyl-1,3,4-oxadiazol-2-yl)sulfanyl]pyrrolidine-2,5-dione]",> 66.6
21,O=C1C=CC([N+](=O)[O-])=CC1CN=Nc1nnn[nH]1 (stereo not drawn),> 66.6
